Results from patent US3960845A, “Process for preparing 7β-acylamino-7α-alkoxycephalosporins or 6β-acylamino-6α-alkoxypenicillins” (Sankyo Company Limited, priority 1974, dated 1976).
≈ marks a conversion by molar mass, not a printed value. Like-named read-outs stand apart in the source and are kept apart here.

Assays:
Format in all cases: cell-based
[1] = system: Staphylococcus aureus 209p; experiment: Minimal inhibitory concentration; conditions: I A: Staphylococcus aureus 209p; read-out: Minimal inhibitory concentration
From the text: (§1) Minimal inhibitory concentrations of various microorganisms mcg/ml
1 A Staphylococcus aureus 209p

[2] = system: Staphylococcus aureus (CP and PC resistant); experiment: Minimal inhibitory concentration; conditions: I B: Staphylococcus aureus (CP and PC resistant)
From the text: as §1
1 B Staphylococcus aureus

[3] = system: E. coli NIHJ; experiment: Minimal inhibitory concentration; conditions: Escherichia coli; II A: E. coli NIHJ
From the text: as §1

[4] = system: Proteus vulgaris; experiment: Minimal inhibitory concentration; conditions: read-out: Minimal inhibitory concentration
From the text: as §1

[5] = system: E. coli 609 (CER resistant); experiment: Minimal inhibitory concentration; conditions: Escherichia coli; II B: E. coli 609 (CER resistant); read-out: Minimal inhibitory concentration
From the text: as §1
II B E. coli 609 (CER resistant)

[6] = system: Shigella flexneri Komagome; experiment: Minimal inhibitory concentration; conditions: read-out: Minimal inhibitory concentration
From the text: as §1
III Shigella flexneri Komagome

[7] = system: Klebsiella neumoniae 806; experiment: Minimal inhibitory concentration; conditions: IV A: Klebsiella neumoniae 806; read-out: Minimal inhibitory concentration
From the text: as §1
IV A Klebsiella neumoniae 806

[8] = system: Klebsiella neumoniae 846 (CER resistant); experiment: Minimal inhibitory concentration; conditions: IV B: Klebsiella neumoniae 846 (CER resistant)
From the text: as §1
IV B Klebsiella neumoniae 846 (CER resistant)

[9] = system: Salmonella enteritidis Gaertner; experiment: Minimal inhibitory concentration; conditions: Salmonella enterica; VI: Salmonella enteritidis Gaertner; read-out: Minimal inhibitory concentration
From the text: as §1
VI Salmonella enteritidis Gaertner

[10] = system: broad pathogenic microorganisms; experiment: antimicrobial activity; conditions: result in words
[11] = III: Shigella flexneri Komagome

SMILES	MIC [1]	MIC [2]	MIC [3]	MIC ([4]; V: Proteus vulgaris)	MIC [5]	MIC ([6]; Shigella flexneri)	MIC [7]	MIC [8]	MIC [9]	antimicrobial activity against broad pathogenic microorganisms [10]	MIC [6, 11]	MIC ([4]; Proteus vulgaris)
C#CCSCC(=O)N[C@]1(OC)C(=O)N2C(C(=O)O)=C(COC(N)=O)CS[C@@H]21 [7β-propargylthioacetamido-7α-methoxy-3-carbamoyloxymethyl-3-cephem-4-carboxylic acid]	0.8 µg/mL (≈ 1.93 µM)	1.5 µg/mL (≈ 3.61 µM)	3.1 µg/mL (≈ 7.46 µM)	6.2 µg/mL (≈ 14.9 µM)	3.1 µg/mL (≈ 7.46 µM)	6.2 µg/mL (≈ 14.9 µM)	3.1 µg/mL (≈ 7.46 µM)	> 400 µg/mL	1.5 µg/mL (≈ 3.61 µM)	excellent antimicrobial activity	–	–
CO[C@@]1(NC(=O)CS(C)(=O)=O)C(=O)N2C(C(=O)O)=C(CSc3nnnn3C)CS[C@@H]21 [7β-methylsulfonylacetamido-7α-methoxy-3-(1-methyl-1H-tetrazole-5-yl)thiomethyl-3-cephem-4-carboxylic acid]	0.8 µg/mL (≈ 1.67 µM)	3.1 µg/mL (≈ 6.48 µM)	1.5 µg/mL (≈ 3.13 µM)	12.5 µg/mL (≈ 26.1 µM)	1.5 µg/mL (≈ 3.13 µM)	–	0.8 µg/mL (≈ 1.67 µM)	400 µg/mL (≈ 836 µM)	0.4 µg/mL (≈ 0.836 µM)	excellent antimicrobial activity	1.5 µg/mL (≈ 3.13 µM)	–
CO[C@@]1(NC(=O)CSc2nncs2)C(=O)N2C(C(=O)O)=C(CSc3nnnn3C)CS[C@@H]21 [7β-(1,3,4-thiadiazol-2-yl)thioacetamido-7α-methoxy-3-(1-methyl-1H-tetrazol-5-yl)thiomethyl-3-cephem-4-carboxylic acid]	0.4 µg/mL (≈ 0.774 µM)	0.8 µg/mL (≈ 1.55 µM)	1.5 µg/mL (≈ 2.9 µM)	3.1 µg/mL (≈ 6 µM)	1.5 µg/mL (≈ 2.9 µM)	–	1.5 µg/mL (≈ 2.9 µM)	> 200 µg/mL	0.8 µg/mL (≈ 1.55 µM)	excellent antimicrobial activity	1.5 µg/mL (≈ 2.9 µM)	–
CO[C@@]1(NC(=O)COc2ccon2)C(=O)N2C(C(=O)O)=C(COC(C)=O)CS[C@@H]21 [7β-(3-isoxazolyloxy)acetamido-7α-methoxy-3-acetoxymethyl-3-cephem-4-carboxylic acid]	≤ 0.1 µg/mL	0.8 µg/mL (≈ 1.87 µM)	6.2 µg/mL (≈ 14.5 µM)	–	6.2 µg/mL (≈ 14.5 µM)	–	6.2 µg/mL (≈ 14.5 µM)	> 400 µg/mL	3.1 µg/mL (≈ 7.25 µM)	excellent antimicrobial activity	12.5 µg/mL (≈ 29.2 µM)	12.5 µg/mL (≈ 29.2 µM)
CO[C@@]1(NC(=O)CSc2nnc(C)s2)C(=O)N2C(C(=O)O)=C(CSc3nnnn3C)CS[C@@H]21 [7β-(5-methyl-1,3,4-thiadiazol-2-yl)thioacetamido-7α-methoxy-3-(1-methyl-1H-tetrazol-5-yl)thiomethyl-3-cephem-4-carboxylic acid]	0.4 µg/mL (≈ 0.754 µM)	1.5 µg/mL (≈ 2.83 µM)	12.5 µg/mL (≈ 23.6 µM)	3.1 µg/mL (≈ 5.84 µM)	12.5 µg/mL (≈ 23.6 µM)	–	12.5 µg/mL (≈ 23.6 µM)	400 µg/mL (≈ 754 µM)	1.5 µg/mL (≈ 2.83 µM)	excellent antimicrobial activity	6.2 µg/mL (≈ 11.7 µM)	–
C#CCSCC(=O)N[C@]1(OC)C(=O)N2C(C(=O)O)=C(COC(C)=O)CS[C@@H]21 [7β-propargylthioacetamido-7α-methoxy-3-acetoxymethyl-3-cephem-4-carboxylic acid]	0.8 µg/mL (≈ 1.93 µM)	3.1 µg/mL (≈ 7.48 µM)	3.1 µg/mL (≈ 7.48 µM)	6.2 µg/mL (≈ 15 µM)	6.2 µg/mL (≈ 15 µM)	–	6.2 µg/mL (≈ 15 µM)	> 400 µg/mL	1.5 µg/mL (≈ 3.62 µM)	excellent antimicrobial activity	6.2 µg/mL (≈ 15 µM)	–
C#CCSCC(=O)N[C@]1(OC)C(=O)N2C(C(=O)O)=C(CSc3nnnn3C)CS[C@@H]21 [7β-propargylthioacetamido-7α-methoxy-3-(1-methyl-1H-tetrazol-5-yl)thiomethyl-3-cephem-4-carboxylic acid]	0.2 µg/mL (≈ 0.425 µM)	0.8 µg/mL (≈ 1.7 µM)	3.1 µg/mL (≈ 6.59 µM)	3.1 µg/mL (≈ 6.59 µM)	3.1 µg/mL (≈ 6.59 µM)	–	3.1 µg/mL (≈ 6.59 µM)	400 µg/mL (≈ 850 µM)	0.8 µg/mL (≈ 1.7 µM)	excellent antimicrobial activity	3.1 µg/mL (≈ 6.59 µM)	–
